Data: patent US20080181882A1, “Neurgulin 1 (NRG1) - ErbB4 signaling as a target for the treatment of schizophrenia” (The University of Pennsylvania, priority 2006, published 2008)
“Also recorded” adds a separate entry of the source.

B1: BDNF: another trophic factor for a different tyrosine kinase receptor (protein, UniProt P23560 19-247, looked up)
Neurotrophic factor BDNF …: APMKEANIRGQGGLAYPGVRTHGTLESVNGPKAGSRGLTSLADTFEHVIEELLDEDQKVRPNEENNKDADLYTSRVMLSSQVPLEPPLLFLLEEYKNYLDAANMSMRVRRHSDPARRGELSVCDSISEWVTAADKKTAVDMSGGTVTVLEKVPVSKGQLKQYFYETKCNPMGYTKEGCRGIDKRHWNSQCRTTQSYVRALTMDSKKRIGWRFIRIDTSCVCTLTIKRGR

What was measured:
[1] = target: T1, erbB4 (Homo sapiens, UniProt Q15303); assay: NRG1 stimulation-induced erbB4 tyrosine phosphorylation in postmortem brain tissue (erbB4 IP, phosphotyrosine immunoblot); type: cell-based; conditions: postmortem PFC tissue stimulated 37° C. 30 min; NRG1-GST or GST 200 ng/ml; NMDA 10 μM + 1 μM glycine
T1 construct: Postmortem PFC tissues were gradually thawed and sliced using a McIlwain tissue chopper; from tissue; host or cells: postmortem human prefrontal cortex (Brodmann areas 9, 10 and/or 46), schizophrenic and control subjects
Experimental: Postmortem PFC tissues were gradually thawed and sliced using a McIlwain tissue chopper (200 μm×200 μm×3 mm). Tissue slices ([…]) were suspended in ice-cold Krebs-Ringer solution containing 118 mM NaCl, 4.8 mM KCl, 1.3 mM CaCl2, 1.2 mM KH2 PO4, 1.2 mM MgSO4, 25 mM NaHCO3, 10 mM glucose, 100 μM ascorbic acid, […] leupeptin, 0.2 mM PMSF, 25 μg/ml pepstatin A and 0.01 U/ml soybean trypsin inhibitor (pH 7.4). We incubated ˜20 mg of tissue with Krebs-Ringer solution containing either 200 ng/ml GST fusion protein or a mixture of neuregulin-1α-GST and neuregulin-1β-GST (200 ng/ml each), at 37° C. for 30 min. During stimulation, the incubation mixture was aerated with 95% O2, 5% CO2 every 10 min for 1 min. Ligand stimulation was terminated by adding of 1 ml ice-cold Ca^2+-free Krebs-Ringer solution containing 0.5 mM EGTA. Tissue slices were harvested by a brief centrifugation and homogenized in 0.25 ml ice-cold immunoprecipitation buffer (same make-up as homogenization buffer described above). The homogenates was centrifuged at 800 g for 10 min and the supernatant sonicated for 10 s. The proteins were solubilized in 0.5% digitonin, 0.2% sodium cholate and 0.5% NP-40 for 60 min. Lysates were cleared by centrifugation at 50,000 g for 5 min and diluted with 0.75 ml of immunoprecipitation buffer. Protein concentrations were determined using the Bradford method (Bio-Rad). […]

[2] = Serum haloperidol concentration in implanted mice; type: in vivo; conditions: CH3, mouse, other: implanted bioabsorbable polymer disc, pooled serum, mice with haloperidol implant
Experimental: (§1) Adult CH3 mice were implanted with a Medisorb bioabsorbable polymer disc (Alkermes Inc.), fabricated with haloperidol (n=7) or polymer vehicle only (n=7). These implants were previously shown to release haloperidol for at least 5 months with a calculated release rate of approximately 2 mg/kg per day. After 12 weeks of treatment, mice were sacrificed and the pooled serum haloperidol concentration was measured. Animal experiments were approved by the Institutional and Animal Care and Use Committee of the University of Pennsylvania.

[3] = test system: erbB4; assay: NRG1-induced erbB4 activation in PFC slices of mice after chronic haloperidol treatment; type: in vivo, mouse; conditions: chronic haloperidol implant, 12 weeks
Experimental: (A) […] slices of PFCs of control and haloperidol treated mice were incubated with or without NRG 1 for 30 min. Tissue lysates were immunoprecipitated for erbB4 and were probed with antiphosphotyrosine or anti-erbB4. (B) Densitometric analysis of erbB4 activation in (A). Graph constructed for the ratios of the intensities for pY-erbB4 over erbB4 for control and haloperidol treated mice. NRG1 induced tyrosine phosphorylation was attenuated in haloperidol treated mice (t(6)=[…]);
as §1
To assess potential confounding effects of demographic or clinical variables, the levels of NRG1 and erbB4 isoforms were assessed, as well as the activation of erbB4, ERK and AKT, for correlations with sex, age, brain pH, postmortem interval and, for the schizophrenia group, exposure to an antipsychotic drug 1 month before death. No significant correlations were found. […]

T1 sequence (Q15303 26-1308): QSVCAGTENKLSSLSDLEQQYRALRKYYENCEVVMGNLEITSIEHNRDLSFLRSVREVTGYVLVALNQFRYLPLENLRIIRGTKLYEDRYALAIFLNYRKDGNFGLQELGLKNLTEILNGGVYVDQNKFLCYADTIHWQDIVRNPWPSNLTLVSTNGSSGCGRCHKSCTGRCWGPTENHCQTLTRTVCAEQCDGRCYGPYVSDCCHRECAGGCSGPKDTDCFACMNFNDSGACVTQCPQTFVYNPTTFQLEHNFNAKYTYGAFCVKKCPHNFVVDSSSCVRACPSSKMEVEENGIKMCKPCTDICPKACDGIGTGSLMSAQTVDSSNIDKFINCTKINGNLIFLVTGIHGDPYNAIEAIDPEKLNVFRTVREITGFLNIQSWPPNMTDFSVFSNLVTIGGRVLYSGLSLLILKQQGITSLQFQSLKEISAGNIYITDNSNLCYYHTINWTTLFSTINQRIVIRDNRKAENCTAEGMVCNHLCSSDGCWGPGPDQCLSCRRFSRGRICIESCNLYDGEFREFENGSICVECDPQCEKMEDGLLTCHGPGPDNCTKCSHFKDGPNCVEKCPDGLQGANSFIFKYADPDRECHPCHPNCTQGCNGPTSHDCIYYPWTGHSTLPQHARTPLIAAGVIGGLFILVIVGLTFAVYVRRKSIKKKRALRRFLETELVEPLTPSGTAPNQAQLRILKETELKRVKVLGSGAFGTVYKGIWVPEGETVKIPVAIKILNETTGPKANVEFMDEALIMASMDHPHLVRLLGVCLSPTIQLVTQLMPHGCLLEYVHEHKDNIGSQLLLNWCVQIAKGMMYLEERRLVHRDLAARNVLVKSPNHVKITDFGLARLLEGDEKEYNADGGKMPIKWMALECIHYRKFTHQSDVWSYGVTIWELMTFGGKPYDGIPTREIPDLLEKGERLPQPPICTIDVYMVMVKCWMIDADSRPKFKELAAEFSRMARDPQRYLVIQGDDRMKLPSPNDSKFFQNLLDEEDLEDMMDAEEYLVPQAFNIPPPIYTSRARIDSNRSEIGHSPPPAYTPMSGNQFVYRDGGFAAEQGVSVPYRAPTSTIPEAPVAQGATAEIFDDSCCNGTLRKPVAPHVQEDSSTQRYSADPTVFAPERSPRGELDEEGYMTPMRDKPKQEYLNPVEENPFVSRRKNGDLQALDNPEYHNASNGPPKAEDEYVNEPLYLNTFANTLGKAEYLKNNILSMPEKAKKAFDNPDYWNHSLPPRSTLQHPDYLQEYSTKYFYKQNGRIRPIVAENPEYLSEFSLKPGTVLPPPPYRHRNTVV

Row | Molecule | tyrosine phosphorylation of erbB4 [1] | concentration at 12 weeks [2] [ng/mL] | NRG1-induced erbB4 activation (pY-erbB4 over erbB4), haloperidol treated vs vehicle mice [3]
1 | CN[C@H](CC(=O)O)C(=O)O [NMDA, N-methyl-Daspartate] | did not enhance | – | –
2 | O=C(CCCN1CCC(O)(c2ccc(Cl)cc2)CC1)c1ccc(F)cc1 [haloperidol] | – | 3.1 | significantly reduced; also recorded: attenuated
3 | B1 | Neither enhanced | – | –
